Reference: patent US5254590A, “Acylaminophenol compounds” (Adir et Compagnie, priority 1991, dated 1993)

Columns and labels:
[1] = target: T1, acyl CoA-cholesterol-acyl transferase (ACAT) (Mus musculus, UniProt Q61263); test: Determination of ACAT: inhibition of esterification of free intracellular cholesterol in macrophage line J 774; format: cell-based; settings: J774; macrophage line J 774, 24 hours, 10^-5 M, relative to placebo; read-out: percentage inhibition of ACAT activity of the macrophages
T1 construct: in the presence of a macrophage J 774 homogenate; endogenous in cells; host or cells: J774 macrophage line
T1 sequence (Q61263 1-540): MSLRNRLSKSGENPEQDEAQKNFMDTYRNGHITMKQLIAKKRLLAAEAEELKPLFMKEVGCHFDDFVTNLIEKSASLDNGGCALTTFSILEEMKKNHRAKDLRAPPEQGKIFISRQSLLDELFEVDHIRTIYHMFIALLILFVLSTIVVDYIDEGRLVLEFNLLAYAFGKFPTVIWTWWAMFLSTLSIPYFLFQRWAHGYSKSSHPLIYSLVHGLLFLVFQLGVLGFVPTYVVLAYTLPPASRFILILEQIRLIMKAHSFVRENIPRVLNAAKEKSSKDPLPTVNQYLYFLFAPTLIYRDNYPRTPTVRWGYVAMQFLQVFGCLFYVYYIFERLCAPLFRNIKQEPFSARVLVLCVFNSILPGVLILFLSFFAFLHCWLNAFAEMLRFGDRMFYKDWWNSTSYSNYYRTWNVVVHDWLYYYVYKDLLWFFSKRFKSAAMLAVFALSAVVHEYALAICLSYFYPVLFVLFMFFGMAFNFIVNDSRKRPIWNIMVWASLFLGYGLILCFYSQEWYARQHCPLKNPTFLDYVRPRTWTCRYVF
Protocol: The test products or the placebo are incubated in the presence of the macrophages for 24 hours at the concentration of 10^-5 M. The efficacy of these compounds is evaluated by calculating the ACAT activity of the macrophages incubated in the presence of a product relative to that of macrophages incubated in the presence of the placebo and is therefore expressed as a percentage inhibition.

[2] = system: hypercholesterolemic hamsters; test: Effect in hypercholesterolemic hamsters (total plasma cholesterol); format: in vivo, Syrian golden hamsters; settings: orally, 10 mg/kg/day
Protocol: Syrian golden hamsters were subjected to a 0.2% hypercholesterolemic diet for 3 weeks. They were then treated orally either by the vehicle for the compounds tested (control group), or by a reference product, or by an original product at the dose of 10 mg/kg/day for 2 weeks. At the end of the treatment, the total cholesterol was measured in the plasma.

[3] = target: T1, acyl CoA-cholesterol-acyl transferase (ACAT); test: Determination of ACAT: inhibition of esterification of free intracellular cholesterol in macrophage line J 774; format: cell-based
human LDLs = test: Modification of the LDLs by copper sulfate (MDA production, lipid peroxidation); format: biochemical; settings: 24 hours, copper sulfate 5×10^-6 M; probucol as reference
Protocol: The human LDLs are incubated for 24 hours in the presence of copper sulfate (5×10^-6 M) with or without the test compounds (concentrations between 10^-7 M and 10^-4 M). After incubation, the peroxidation of the LDLs is evaluated by electrophoresis on agar gel and by the formation of one of the products of lipid peroxidation: malondialdehyde (MDA) according to the technique described by […] et al. (J. Clin. Invest. 77, 641-644, 1986).

SMILES | inhibition at 10 µM [1] | other results
CCCCCCCCCC(C)C(=O)Nc1cc(C)c(O)c(C)c1C (stereo not drawn) [Example 4, 2,3,6-Trimethyl-4-(2-methylundecanamido)phenol] | 91% | –
CCCCCCCCCC(C)(C)C(=O)Nc1cc(C)c(O)c(C)c1C [Example 14, 2,3,6-Trimethyl-4-(2,2-dimethylundecanamido)phenol] | 92% | –
CCCCCCCCCCC(C)(C)C(=O)Nc1cc(C)c(O)c(C)c1C [Example 15, 2,3,6-Trimethyl-4-(2,2-dimethyldodecanamido)phenol] | 93% | –
CCCCCCCCCCCC(C)(C)C(=O)Nc1cc(C)c(O)c(C)c1C [Example 16, 2,3,6-Trimethyl-4-(2,2-dimethyltridecanamido)phenol] | 96% | –
CCCCCCCC/C=C\CCCCCCC(C)C(=O)Nc1cc(C)c(O)c(C)c1C (stereo not drawn) [Example 20, 2,3,6-Trimethyl-4-(2-methyl-9-octadecenamido)phenol cis isomer] | 95% | hypocholesterolemiant activity, level of total plasma cholesterol ([2]; 15 days (2 weeks), 0.2% hypercholesterolemic diet): normalizes the level of cholesterol in the hypercholesterolemic animals; hypocholesterolemiant activity compared with reference products (Ref. 1 and Ref. 2) ([2]; same conditions): considerably higher than that of the reference products tested
CCCCC/C=C\C/C=C\CCCCCCCC(=O)Nc1cc(C)c(O)c(C)c1C [Example 21, 2,3,6-Trimethyl-4-(9,12-octadecadienamido)phenol cis, cis isomer] | 90% | –
CCCCCC=CCC=CCC=CCCCCC(=O)Nc1cc(C)c(O)c(C)c1C [Example 23, 2,3,6-Trimethyl-4-(6,9,12-octadecatrienamido)phenol] | 94% | –
CCCCCCCCCCC1(C(=O)Nc2cc(C)c(O)c(C)c2C)CCCC1 [Example 57, 2,3,6-Trimethyl-4-[(1-decyl-cyclopent-1-yl)carboxamido]phenol] | 98% | –
CCCCC/C=C\C/C=C\CCCCCCC(C)C(=O)Nc1cc(C)c(O)c(C)c1C (stereo not drawn) [Example 58, 2,3,6-Trimethyl-4-(2-methyl-9,12-octadecadienamido)phenol, cis, cis isomer] | 97% | –
CCCCCCCC/C=C\CCCCCCCC(=O)Nc1c(OC)cc(OC)cc1OC [Ref. 1, 2,4,6-trimethoxy-(9-(Z)octadecenamido)benzene] | 75% | IC50 [3]: 3 µM; antioxidant activity towards human LDLs (in words) (human LDLs): completely lack this activity
CCCCCCCCCCC(C)(C)C(=O)Nc1c(OC)cc(OC)cc1OC [Ref. 2, 2,4,6-trimethoxy-(2,2-dimethyldodecanamido)benzene] | – | antioxidant activity towards human LDLs (in words) (human LDLs): completely lack this activity
